Source: article PMC8194517, “B^0AT1 Amino Acid Transporter Complexed With SARS-CoV-2 Receptor ACE2 Forms a Heterodimer Functional Unit: In Situ Conformation Using Radiation Inactivation Analysis” (Function, 2021)

Test system: T1, B^0AT1 ([ACE2:B^0AT1] heterodimer functional unit)
T1 construct: gene SLC6A19; native, ileal apical brush border membrane vesicles, lyophilized and reconstituted; full-length; with Angiotensin-converting enzyme 2
Assay: radiotracer uptake into brush border membrane vesicles, […] s initial rate
Assay type: biochemical, Oryctolagus cuniculus
Conditions: labelled compound; Na+-dependent zero-trans influx, 100 mM NaSCN, pH 7.5, 22°C; apparent Km, major component after subtracting diffusion and a minor 'Other' component

Km: 6.9 ± 0.8 mM
SMILES: C[C@H](N)C(=O)O [L-alanine]
